# Read-outs that look alike come from different tables or passages of the source. Where a SMILES comes first, the peptide text is derived from it. [ ]: non-standard residue; d: D form. The star is where a group is joined. Sta = CC(C)C[C@H](N)[C@@H](O)CC(=O)O; Isovaleryl = CC(C)CC(=O)*
# Biological target: T1, recombinant cathepsin L2 (Homo sapiens, UniProt O60911)
# T1 construct: extra Met before Leu114 (ATG of primer L2-1; own reading of the primer) (N); made in house; host or cells: E. coli BL21 (DE3)
# Format: biochemical
# Settings: FIG. 3(B)
# Method: The enzyme activity of purified cathepsin L2 produced in E. coli was measured by using 20 μM Z-Phe-Arg-AMC or Z-Arg-Arg-AMC (Bachem) as the substrate and following the procedure described by Barrett and Kirschke (Barrett, A. J., et al., Methods Enzymol., 80: 535-561, 1981) with minor modifications. Assays were performed at 30° C. in 100 mM sodium acetate buffer (pH 4.5) containing 10 mM dithiothreitol (DTT) and 2 mM EDTA. Substrate hydrolysis was monitored in a Cytofluor 2350 fluorometer (Millipore) at excitation and emission wavelengths of 360 and 460 nm, respectively. For inhibition assays, the reaction mixture containing recombinant cathepsin L2 was preincubated with 20 μM E-64 (Sigma) at 30° C. for 15 min, and the remaining activity for recombinant cathepsin L2 was determined using the fluorogenic substrate Z-Phe-Arg-AMC as described herein previously. As a positive control of enzyme assays, recombinant cathepsin O produced in E. coli (Velasco, G., et al., J. Biol. Chem., 269: 27136-27142, 1994) was used.
# [1] = inhibitors of metalloproteinases, serine-proteinases, aspartyl-proteinases, concentration not given
# T1 sequence (O60911 114-334): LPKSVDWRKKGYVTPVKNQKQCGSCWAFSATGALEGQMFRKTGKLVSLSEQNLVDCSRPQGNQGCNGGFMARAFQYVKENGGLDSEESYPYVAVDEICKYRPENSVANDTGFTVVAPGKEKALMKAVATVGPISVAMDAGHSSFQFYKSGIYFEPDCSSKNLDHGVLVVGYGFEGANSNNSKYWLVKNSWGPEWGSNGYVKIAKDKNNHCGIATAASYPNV
Compound,proteolytic activity of cathepsin L2 against Z-Phe-Arg-AMC in the presence of inhibitor [1],"proteolytic activity of cathepsin L2 against Z-Phe-Arg-AMC in the presence of inhibitor (preincubated with 20 μM E-64 at 30° C. for 15 min, 100 mM sodium acetate buffer pH 4.5, 10 mM DTT, 2 mM EDTA)"
CC(C)CC(=O)N[C@H](C(=O)N[C@H](C(=O)N[C@@H](CC(C)C)[C@@H](O)CC(=O)N[C@@H](C)C(=O)N[C@@H](CC(C)C)[C@@H](O)CC(=O)O)C(C)C)C(C)C [pepstatin A] (Isovaleryl-VV[Sta]A[Sta]-OH),not abolished,
"CC(C)C[C@H](NC(=O)[C@H]1O[C@@H]1C(=O)O)C(=O)NCCCCN=C(N)N (relative stereo) [Clone E-64, trans-epoxysuccinyl-L-leucylamido-(4-guanidino)butane]",,abolished
O=S(=O)(F)Cc1ccccc1 [phenylmethylsulfonyl fluoride],not abolished,
